Data published in patent publication US9174967B2, “Substituted pyrazole-containing compounds and their use as pesticides” (BASF SE, priority 2012, dated 2015).

Tests used:
Test in all cases: whole plant or invertebrate
Type in all cases: in vivo
[1] = test system: Orchid Thrips (dichromothrips corbetti); settings: 96 h, adult thrips, after 4 days, read-out: mortality in comparison with untreated controls
[2] = test system: Vetch Aphid (Megoura viciae); settings: foliar, 120 h, adult aphids, after 5 days, read-out: mortality in comparison with untreated controls
[3] = test system: Cowpea Aphid (aphis craccivora); settings: spray, population reduction assessed after 24, 72 and 120 hours, read-out: mortality in comparison with untreated controls
[4] = test system: Tobacco Budworm (Heliothis virescens); settings: in Gossypium hirsutum, 96 h, larvae, 4 days after treatment, read-out: mortality in comparison with untreated controls
[5] = test system: Diamond Back Moth (plutella xylostella); settings: in Brassica oleracea, foliar, leaf dip, 3rd instar larvae, 72 hours after treatment, read-out: mortality in comparison with untreated controls
[6] = test system: Southern Armyworm (Spodoptera eridania); settings: in Phaseolus lunatus, 96 h, larvae, 4 days after treatment, read-out: mortality in comparison with untreated controls
[7] = test system: Rice Brown Plant Hopper (Nilaparvata lugens); settings: adults, after 72 hours, read-out: mortality in comparison with untreated controls
[8] = test system: Rice Green Leafhopper (Nephotettix virescens); settings: adults, after 72 hours, read-out: mortality in comparison with untreated controls
[9] = test system: Silverleaf Whitefly (Bemisia argentifolii); settings: 72 h, whitefly adults, 3 days after treatment, read-out: mortality in comparison with untreated controls
[10] = test system: Boll Weevil (Anthonomus grandis); settings: 120 h, egg and larval mortality after 5 days, read-out: mortality in comparison with untreated controls
[11] = test system: Mediterranean Fruitfly (Ceratitis capitata); settings: 120 h, egg and larval mortality after 5 days, read-out: mortality in comparison with untreated controls
[12] = test system: Red Spider Mite (Tetranychus kanzawai); settings: in Vigna unguiculata, 72 hours after treatment, read-out: mortality in comparison with untreated controls
[13] = test system: Colorado Potato Beetle (Leptinotarsa decemlineata); settings: in Solanum melongena, foliar, 96 h, larvae, 4 days after treatment, read-out: mortality in comparison with untreated controls
[14] = test system: Green Peach Aphid (Myzus persicae); settings: 120 h, after 5 days, read-out: mortality in comparison with untreated controls

CCS(CC)=Nc1c(-c2cc(Cl)c3c(c2)OCO3)c(C(F)(F)F)nn1-c1ncccn1 [I.1-1, [4-(7-Chloro-1,3-benzodioxol-5-yl)-2-pyrimidin-2-yl-5-(trifluoromethyl)pyrazol-3-yl]imino-diethyl-λ^4-sulfane]
≥ 75%: mortality at 300 ppm [1] | mortality at 2500 ppm [2] | mortality at 300 ppm [3] | mortality at 2500 ppm [4] | mortality at 300 ppm [5] | mortality at 300 ppm [6] | mortality at 500 ppm [7] | mortality at 300 ppm [8] | mortality at 500 ppm [9] | mortality at 2500 ppm [10] | mortality at 2500 ppm [11] | mortality at 300 ppm [12]

CCNC(=O)N(C(=O)NCC)c1c(-c2cc(Cl)cc(C(F)(F)F)c2)c(C(F)(F)F)nn1-c1ncccn1 [I.1-9, 1-[4-[3-chloro-5-(trifluoromethyl)phenyl]-2-pyrimidin-2-yl-5-(trifluoromethyl)pyrazol-3-yl]-3-ethyl-1-(ethylcarbamoyl)urea]
≥ 75%: mortality at 500 ppm [7]

FC(F)(F)c1nn(-c2ncccn2)c(N=S2CCCC2)c1-c1cc(Cl)c2c(c1)OCO2 [I.1-3, 2-[4-(7-Chloro-1,3-benzodioxol-5-yl)-5-(thiolan-1-ylideneamino)-3-(trifluoromethyl)pyrazol-1-yl]pyrimidine]
≥ 75%: mortality at 300 ppm [1] | mortality at 2500 ppm [2] | mortality at 300 ppm [3] | mortality at 2500 ppm [4] | mortality at 300 ppm [5] | mortality at 300 ppm [6] | mortality at 500 ppm [7] | mortality at 300 ppm [8] | mortality at 500 ppm [9] | mortality at 2500 ppm [10] | mortality at 2500 ppm [11] | mortality at 300 ppm [12]

CCS(CC)=Nc1c(-c2cc(Cl)cc(C(F)(F)F)c2)c(C(F)(F)F)nn1-c1ncccn1 [I.1-4]
≥ 75%: mortality at 300 ppm [1] | mortality at 2500 ppm [2] | mortality at 300 ppm [3] | mortality at 2500 ppm [4] | mortality at 300 ppm [5] | mortality at 300 ppm [6] | mortality at 500 ppm [7] | mortality at 300 ppm [8] | mortality at 2500 ppm [10] | mortality at 2500 ppm [11] | mortality at 300 ppm [12]

CC(C)S(=Nc1c(-c2cc(Cl)cc(C(F)(F)F)c2)c(C(F)(F)F)nn1-c1ncccn1)C(C)C [I.1-5]
≥ 75%: mortality at 300 ppm [1] | mortality at 2500 ppm [2] | mortality at 300 ppm [3] | mortality at 2500 ppm [4] | mortality at 300 ppm [13] | mortality at 300 ppm [5] | mortality at 300 ppm [14] | mortality at 300 ppm [6] | mortality at 500 ppm [7] | mortality at 300 ppm [8] | mortality at 500 ppm [9] | mortality at 2500 ppm [10] | mortality at 2500 ppm [11] | mortality at 300 ppm [12]

FC(F)(F)c1cc(Cl)cc(-c2c(C(F)(F)F)nn(-c3ncccn3)c2-n2cccc2)c1 [I.1-7, 2-[4-[3-chloro-5-(trifluoromethyl)phenyl]-5-pyrrol-1-yl-3-(trifluoromethyl)pyrazol-1-yl]pyrimidine]
≥ 75%: mortality at 300 ppm [1] | mortality at 300 ppm [3] | mortality at 2500 ppm [4] | mortality at 300 ppm [5] | mortality at 300 ppm [6] | mortality at 300 ppm [8] | mortality at 500 ppm [9]

FC(F)(F)c1cc(Cl)cc(-c2c(C(F)(F)F)nn(-c3ncccn3)c2/N=N/Nc2ccccc2)c1 [I.1-10, N-[(E)-[4-[3-chloro-5-(trifluoromethyl)phenyl]-2-pyrimidin-2-yl-5-(trifluoromethyl)pyrazol-3-yl]azo]aniline]
≥ 75%: mortality at 2500 ppm [2] | mortality at 300 ppm [3] | mortality at 2500 ppm [4] | mortality at 300 ppm [5] | mortality at 300 ppm [14] | mortality at 300 ppm [6] | mortality at 2500 ppm [10] | mortality at 2500 ppm [11]

CC(C)S(=Nc1c(-c2cc(Cl)c3c(c2)OCO3)c(C(F)(F)F)nn1-c1ncccn1)C(C)C [I.1-2, [4-(7-Chloro-1,3-benzodioxol-5-yl)-2-pyrimidin-2-yl-5-(trifluoromethyl)pyrazol-3-yl]imino-diisopropyl-λ^4-sulfane]
≥ 75%: mortality at 300 ppm [1] | mortality at 2500 ppm [2] | mortality at 300 ppm [3] | mortality at 2500 ppm [4] | mortality at 300 ppm [5] | mortality at 300 ppm [6] | mortality at 500 ppm [7] | mortality at 300 ppm [8] | mortality at 500 ppm [9] | mortality at 2500 ppm [10] | mortality at 2500 ppm [11]
